# Values quoted from earlier work in article PMC7395068, “The evolution of strategies to minimise the risk of human drug-induced liver injury (DILI) in drug discovery and development” (Archives of Toxicology, 2020).
# Read-outs that look alike come from different tables or passages of the source.
# Legend:
# [1] = tested on: HepG2 C3A spheroid, BSEP, Glu/Gal in HepG2 cells, bioactivation; details: cited from earlier work
# [2] = cited from earlier work
# human hepatocytes = details: In vitro Assay; ref Xu 2008; cited from earlier work
# HepG2 cells [3] = details: In vitro Assay; ref O'Brien 2006; cited from earlier work
# [4] = ref Chen 2016; cited from earlier work
# hLiMTs = details: In vitro Assay; ref Proctor 2017; cited from earlier work
# PHH = details: In vitro Assay; ref Proctor 2017; cited from earlier work
# rBsep = details: In vitro Assay; ref Dawson 2012; cited from earlier work
# [5] = tested on: THLE-Null and THLE-3A4 cells; details: In vitro Assay; ref Gustafsson 2014; cited from earlier work
# [6] = tested on: THLE or HepG2 cells, isolated mitochondria, BSEP; details: In vitro Assay; ref Aleo 2019; cited from earlier work
# [7] = tested on: primary human hepatocytes, NIH3T3 fibroblasts, BSEP, CYP3A4; details: In vitro Assay; ref Schadt 2015; cited from earlier work
# HepG2 cells [8] = details: cited from earlier work; for Cluser analysis / Structural based (HCI): In vitro Assay, ref Persson 2013
# PHH spheroids = details: In vitro Assay; ref Vorrink 2018; cited from earlier work
# [9] = In vitro Assay, ref Williams 2019
SMILES,Bayesian Machine Learning ([1]; ref Williams 2019),In vivo DILI ([2]; ref Williams 2019),In vivo DILI ([2]; ref Proctor 2017),"DILI +VE (5-8), DILI -VE (-4) [4]",DILI severity category [4],hLiMTs ATP <100uM (hLiMTs),PHH ATP <100uM (PHH),"Bayesian Machine Learning [1, 9]",THLE-Null [5],In vivo DILI ([2]; ref Schadt 2015),Cellular toxicity (3T3 cells) [7],Combined Assay [7],GSH adduct HML [7],Hepatocyte cellular toxicity [7],MitoTox 3T3 [7],TDI CYP3A4 [7],hBSEP inhibition [7],further results
Cc1ccc(Cl)c(Nc2ccccc2C(=O)O)c1Cl [meclofenamate],+VE,-VE,–,–,–,–,–,–,–,–,–,–,–,–,–,–,–,In vivo DILI ([2]; ref Xu 2008): +VE; Structural based (HCI) (human hepatocytes): +VE
O=c1[nH]c2ccccc2n1C1CCN(CCCC(c2ccc(F)cc2)c2ccc(F)cc2)CC1 [pimozide],+VE,+VE,+VE,-VE,vNo-DILI-Concern,+VE (IC50 threshold of 100 µM),-VE,–,–,–,–,–,–,–,–,–,–,In vivo DILI ([2]; ref O'Brien 2006): -VE; Structural based (HCI) (HepG2 cells [3]): -VE
N[C@@H]1CON=C1O [cycloserine],–,–,–,–,–,–,–,-VE,-VE,–,–,–,–,–,–,–,–,Inhibition of rBsep cutoff<1& cmax u>.2 (rBsep): -VE; Inhibition of rBsep cutoff<3 (rBsep): -VE
Cc1cc2c(cc1CC(=O)c1sccc1S(=O)(=O)Nc1onc(C)c1Cl)OCO2 [sitaxentan],–,+VE,+VE,+VE,vMost-DILI-Concern,-VE,-VE,+VE,–,+VE,-VE,+VE,+VE,+VE,-VE,+VE,+VE,In vivo DILI ([2]; ref Aleo 2019): +VE; Partition Hybrid HRM Score [6]: +VE; Ro2 Hybrid HRM Score [6]: +VE
CCC(C)n1ncn(-c2ccc(N3CCN(c4ccc(OCC5COC(Cn6cncn6)(c6ccc(Cl)cc6Cl)O5)cc4)CC3)cc2)c1=O (stereo not shown) [itraconazole],–,+VE,+VE,+VE,vMost-DILI-Concern,+VE (IC50 threshold of 100 µM),-VE,+VE,–,+VE,-VE,+VE,-VE,-VE,+VE,-VE,-VE,In vivo DILI ([2]; ref O'Brien 2006): +VE; In vivo DILI ([2]; ref Persson 2013): +VE; Structural based (HCI) (HepG2 cells [3]): +VE; Cluser analysis (HepG2 cells [8]): +VE; Structural based (HCI) (HepG2 cells [8]): +VE
Cc1c(C(=O)NN2CCCCC2)nn(-c2ccc(Cl)cc2Cl)c1-c1ccc(Cl)cc1 [rimonabant],+VE,-VE,–,–,–,–,–,–,+VE,–,–,–,–,–,–,–,–,In vivo DILI ([2]; ref Gustafsson 2014): -VE; THLE-Null/3A4 [5]: +VE
Cc1cc(CC(=O)O)n(C)c1C(=O)c1ccc(Cl)cc1 [zomepirac],–,-VE,-VE,–,–,-VE,-VE,+VE,-VE,+VE,-VE,+VE,+VE,-VE,-VE,-VE,-VE,In vivo DILI ([2]; […]): +VE; In vivo DILI ([2]; ref Gustafsson 2014): -VE; In vivo DILI ([2]; ref O'Brien 2006): -VE; In vivo DILI ([2]; ref Xu 2008): -VE; Structural based (HCI) (HepG2 cells [3]): +VE; Structural based (HCI) (human hepatocytes): -VE; THLE-Null/3A4 [5]: -VE
O=C(NC1CCN(CCc2c[nH]c3ccccc23)CC1)c1ccccc1 [indoramin],-VE,-VE,-VE,–,–,-VE,-VE,–,–,–,–,–,–,–,–,–,–,–
Nc1nc(F)nc2c1ncn2[C@@H]1O[C@H](CO)[C@@H](O)[C@@H]1O [fludarabine],–,-VE,-VE,-VE,vNo-DILI-Concern,+VE (IC50 threshold of 100 µM),-VE,–,–,–,–,–,–,–,–,–,–,Bayesian Machine Learning [1]: -VE
COC(=O)C1=C(C)NC(C)=C(C(=O)OCCN(C)Cc2ccccc2)C1c1cccc([N+](=O)[O-])c1 (stereo not shown) [nicardipine],–,–,–,–,–,–,–,-VE,–,–,–,–,–,–,–,–,–,hLiMTs ATP <20 x Cmax (PHH spheroids): -VE
CN1[C@@H]2CC[C@H]1C[C@@H](OC(c1ccccc1)c1ccccc1)C2 [benztropine],-VE,-VE,-VE,-VE,vNo-DILI-Concern,+VE (IC50 threshold of 100 µM),+VE (IC50 threshold of 100 µM),–,–,–,–,–,–,–,–,–,–,In vivo DILI ([2]; ref Aleo 2019): -VE; Ro2 Hybrid HRM Score [6]: -VE
"Nc1c(CC(=O)O)cccc1C(=O)c1ccc(Br)cc1 [bromfenac, reference compound]",–,+VE,–,+VE,vMost-DILI-Concern,–,–,+VE,-VE,+VE,-VE,-VE,-VE,-VE,-VE,-VE,-VE,"In vivo DILI ([2]; […]): +VE; In vivo DILI ([2]; ref Aleo 2019): +VE; In vivo DILI ([2]; ref Gustafsson 2014): +VE; In vivo DILI ([2]; ref Persson 2013): +VE; Partition Hybrid HRM Score [6]: +VE; Ro2 Hybrid HRM Score [6]: +VE; Cluser analysis (HepG2 cells [8]): -VE; Structural based (HCI) (HepG2 cells [8]): -VE; DILI in vitro assay prediction, Persson (2013) (HepG2 cells [8]; Structural based (HCI), HepG2, ref Persson et al. 2013): negative; THLE-Null/3A4 [5]: -VE"
